System: PBMCs from HCMV seropositive subjects
Test: ex vivo IFN-γ Fluorospot assay
Format: cell-based, human
Details: 19 HCMV seropositive subjects, individual peptide 10 ug/ml, 20 hr; for No. of subjects responding: IFN-γ; for Magnitude of response: IFN-γ spots (FIG. 1: SFC/10^6 PBMC; no unit in table)
Description: To define the targets of HCMV-specific T cell epitopes recognized in healthy adults, the inventors screened PBMCs of 19 subjects, 10 males and 9 females, recruited from San Diego blood bank (SDBB). The HCMV seropositivity of all the subjects was confirmed by IgG ELISA (FIG. 6A). A total of 2593 HCMV peptides covering a total of 563 ORFs (1) were tested. However, as many of these predicted ORFs overlapped 100% with others, as they were internal to longer ORFs, these 563 contained 359 completely unique ORFs composed of ˜150“canonical” ORFs, and an additional ˜200 identified by ribosomal RNA profiling (1). These peptides corresponded to predicted dominant epitopes, based on a bioinformatic method that predicts promiscuous binding to HLA class II molecules (40). Each of the ORFs above was covered by multiple predicted epitopes (with a minimum of at least 2), with the exception of very small ORFs (less than 15-20 amino acid residues), in which case at least one peptide was synthetized. The 2593 peptides were arranged in 89 pools of 28-30 15-mer peptides. PBMC reactivity of each of the 89 pools was assayed directly ex vivo using an IFN-γ Fluorospot assay.
For the initial CMV ORF screen, the responses of 19 CMV-seropositive subjects were evaluated. PBMCs were stimulated with 89 pools covering 563 ORFs of HCMV. Each pool comprised of 28-30 15-mer peptides overlapping by 10 residues. PBMCs that were found reactive to a pool were further tested against individual peptides contained in the pool using IFN-γ Fluorospot assay.
PBMC were thawed, washed and counted for viability using the trypan blue exclusion method. 200,000 cells were plated in triplicates and stimulated with pools (2 ug/ml) or peptides (10 ug/ml), PHA (10 ug/ml) or medium containing equivalent amount of DMSO in 96-well plates (Immubilion-P, Millipore) previously coated with anti IFN-γ antibody (1-DIK, Mabtech, Stockholm, Sweden). After 20 hr incubation at 37° C., cells were discarded and wells were washed six times with PBS/0.05% Tween 20 using an automated plate washer and further incubated with IFN-γ antibody (7-B6-1-FS-BAM) for 2 hrs at room temperature. After incubation, wells were washed and incubated with fluorophore conjugated anti-BAM-490 antibody for 1 hr at room temperature. Finally, the plates were washed and incubated with fluorescence enhancer for 15 min, blotted dry and fluorescent spots were counted by computer assisted image analysis (IRIS Fluorospot reader, Mabtech, Sweden).
Each pool or peptide was considered positive compared to the background that had equivalent amount of DMSO based on the following criteria: (i) 20 or more spot forming cells (SFC) per 10^6 PBMC after background subtraction, (ii) the stimulation index greater than 2, and (iii) p<0.05 by student's t test or Poisson distribution test

Substance: 157 (HLGWQTLSNHVIRRL) [compound 157]
- No. of subjects responding: 1
- Magnitude of response: 127

Substance: 159 (SCTHPYVISLVTPLT) [compound 159]
- No. of subjects responding: 1
- Magnitude of response: 80

Substance: 160 (ISLVTPLTINATLRL) [compound 160]
- No. of subjects responding: 1
- Magnitude of response: 317

Substance: 161 (CRVDADLGLLYAVCL) [compound 161]
- No. of subjects responding: 1
- Magnitude of response: 673

Substance: 162 (VCLILSFSIVTAALW) [compound 162]
- No. of subjects responding: 1
- Magnitude of response: 43

Substance: 163 (MFFLAIRDHDTAGGI) [compound 163]
- No. of subjects responding: 1
- Magnitude of response: 1637

Substance: 164 (LQTMLRKEVNSQLSL) [compound 164]
- No. of subjects responding: 2
- Magnitude of response: 1606

Substance: 165 (LVKQIKVRVDMVRHR) [compound 165]
- No. of subjects responding: 3
- Magnitude of response: 580

Substance: 166 (RVDMVRHRIKEHMLK) [compound 166]
- No. of subjects responding: 2
- Magnitude of response: 250

Substance: 167 (LRRKMMYMCYRNIEF) [compound 167]
- No. of subjects responding: 6
- Magnitude of response: 1697

Substance: 168 (CSPDEIMSYAQKIFK) [compound 168]
- No. of subjects responding: 2
- Magnitude of response: 194

Substance: 169 (EERDKVLTHIDHIFM) [compound 169]
- No. of subjects responding: 2
- Magnitude of response: 107

Substance: 170 (VLCCYVLEETSVMLA) [compound 170]
- No. of subjects responding: 1
- Magnitude of response: 93

Substance: 171 (ITKPEVISVMKRRIE) [compound 171]
- No. of subjects responding: 1
- Magnitude of response: 1600

Substance: 172 (FAQYILGADPLRVCS) [compound 172]
- No. of subjects responding: 1
- Magnitude of response: 30

Substance: 173 (EAIVAYTLATAGASS) [compound 173]
- No. of subjects responding: 3
- Magnitude of response: 19333

Substance: 177 (STPFLMEHTMPVTHP) [compound 177]
- No. of subjects responding: 4
- Magnitude of response: 740

Substance: 178 (YRNMIIHAATPVDLL) [compound 178]
- No. of subjects responding: 2
- Magnitude of response: 130

Substance: 179 (VMVRIFSTNQGGFML) [compound 179]
- No. of subjects responding: 2
- Magnitude of response: 3560

Substance: 180 (VVVGIVLCLSLASTV) [compound 180]
- No. of subjects responding: 1
- Magnitude of response: 1417

Substance: 181 (SPVAAELPHPSPAPM) [compound 181]
- No. of subjects responding: 2
- Magnitude of response: 166

Substance: 182 (SYLAVHLRISHRYYH) [compound 182]
- No. of subjects responding: 1
- Magnitude of response: 290

Substance: 183 (IAITMVMRFWQYING) [compound 183]
- No. of subjects responding: 3
- Magnitude of response: 163

Substance: 187 (LHRRAAVSGRRSLLQ) [compound 187]
- No. of subjects responding: 1
- Magnitude of response: 87

Substance: 188 (MLRLLFTLVLLALYG) [compound 188]
- No. of subjects responding: 3
- Magnitude of response: 4593

Substance: 189 (HVRLLSYRGDPLVFK) [compound 189]
- No. of subjects responding: 3
- Magnitude of response: 333

Substance: 190 (VVRFALYLETLSRIV) [compound 190]
- No. of subjects responding: 2
- Magnitude of response: 123

Substance: 191 (FYMNWTLRRSQTHYL) [compound 191]
- No. of subjects responding: 6
- Magnitude of response: 16883

Substance: 192 (QVEILKPRGVRHRAI) [compound 192]
- No. of subjects responding: 9
- Magnitude of response: 3468

Substance: 193 (FCVYRYNARLTRGYV) [compound 193]
- No. of subjects responding: 3
- Magnitude of response: 700

Substance: 194 (TRGYVRYTLSPKARL) [compound 194]
- No. of subjects responding: 7
- Magnitude of response: 9337

Substance: 195 (SLDRFIVQYLNTLLI) [compound 195]
- No. of subjects responding: 8
- Magnitude of response: 23368

Substance: 196 (PTWSTTVNAHNSFLH) [compound 196]
- No. of subjects responding: 1
- Magnitude of response: 47

Substance: 197 (DRLSTLAATMCMFDY) [compound 197]
- No. of subjects responding: 1
- Magnitude of response: 53

Substance: 198 (LFYRAVALGTLSALV) [compound 198]
- No. of subjects responding: 3
- Magnitude of response: 2633

Substance: 199 (SSIFTSTHRGVIVAP) [compound 199]
- No. of subjects responding: 1
- Magnitude of response: 27

Substance: 200 (LSVRYLSLTAYMLLA) [compound 200]
- No. of subjects responding: 1
- Magnitude of response: 1200

Substance: 201 (TAYKAFLWKYAKKLN) [compound 201]
- No. of subjects responding: 1
- Magnitude of response: 503

Substance: 202 (WKYAKKLNYHYFRLR) [compound 202]
- No. of subjects responding: 1
- Magnitude of response: 237

Substance: 203 (VYLWYVRRQLVAFCL) [compound 203]
- No. of subjects responding: 3
- Magnitude of response: 253

Substance: 204 (FPSARDIPKQLPEQP) [compound 204]
- No. of subjects responding: 1
- Magnitude of response: 27

Substance: 205 (VVAYVILERLWLAAR) [compound 205]
- No. of subjects responding: 1
- Magnitude of response: 23

Substance: 206 (IRRWWISVAIVIFIG) [compound 206]
- No. of subjects responding: 3
- Magnitude of response: 10480

Substance: 207 (RWQFAVCAASKTATR) [compound 207]
- No. of subjects responding: 1
- Magnitude of response: 50

Substance: 208 (PQRLLLTALAIWQRT) [compound 208]
- No. of subjects responding: 1
- Magnitude of response: 983

Substance: 209 (PWWRRLRVKRPKFPS) [compound 209]
- No. of subjects responding: 1
- Magnitude of response: 240

Substance: 210 (LWYLGDYGAILKIYF) [compound 210]
- No. of subjects responding: 1
- Magnitude of response: 40

Substance: 211 (LFCGACVITRSLLLI) [compound 211]
- No. of subjects responding: 1
- Magnitude of response: 487

Substance: 212 (MNLVMLILALWAPVA) [compound 212]
- No. of subjects responding: 1
- Magnitude of response: 553

Substance: 214 (MLVVTVFDTTRLFEI) [compound 214]
- No. of subjects responding: 1
- Magnitude of response: 840

Substance: 215 (VCAFCWLVLPHRLEQ) [compound 215]
- No. of subjects responding: 1
- Magnitude of response: 1960

Substance: 216 (VSVLYFMPSEPGSAH) [compound 216]
- No. of subjects responding: 1
- Magnitude of response: 177

Substance: 217 (VFQKTLSMLQGLYLR) [compound 217]
- No. of subjects responding: 2
- Magnitude of response: 327

Substance: 218 (GLYLRQYDPPALRTY) [compound 218]
- No. of subjects responding: 2
- Magnitude of response: 633

Substance: 219 (WFLVMREQAAIPQIY) [compound 219]
- No. of subjects responding: 4
- Magnitude of response: 1100

Substance: 220 (QIYARSLAADYLCCD) [compound 220]
- No. of subjects responding: 1
- Magnitude of response: 33

Substance: 221 (DFRDLLNFIRQRLCC) [compound 221]
- No. of subjects responding: 1
- Magnitude of response: 30

Substance: 222 (PSQEILLLCARHLDE) [compound 222]
- No. of subjects responding: 3
- Magnitude of response: 110

Substance: 223 (TDCWPFEVAPAARLA) [compound 223]
- No. of subjects responding: 2
- Magnitude of response: 1637

Substance: 224 (LFRAGLMKVYVRRRY) [compound 224]
- No. of subjects responding: 1
- Magnitude of response: 870
